These results are taken from US9255100B2 (BAYER INTELLECTUAL PROPERTY GMBH, priority 2010, dated 2016).

The target in the experiment is T1, N-terminally GST-tagged human full length recombinant Mps-1 kinase (Homo sapiens, UniProt P33981).
T1 construct: N-terminally GST-tagged human full length recombinant Mps-1 kinase; purchased Invitrogen, Karslruhe, Germany PV4071
T1 sequence (P33981 1-857): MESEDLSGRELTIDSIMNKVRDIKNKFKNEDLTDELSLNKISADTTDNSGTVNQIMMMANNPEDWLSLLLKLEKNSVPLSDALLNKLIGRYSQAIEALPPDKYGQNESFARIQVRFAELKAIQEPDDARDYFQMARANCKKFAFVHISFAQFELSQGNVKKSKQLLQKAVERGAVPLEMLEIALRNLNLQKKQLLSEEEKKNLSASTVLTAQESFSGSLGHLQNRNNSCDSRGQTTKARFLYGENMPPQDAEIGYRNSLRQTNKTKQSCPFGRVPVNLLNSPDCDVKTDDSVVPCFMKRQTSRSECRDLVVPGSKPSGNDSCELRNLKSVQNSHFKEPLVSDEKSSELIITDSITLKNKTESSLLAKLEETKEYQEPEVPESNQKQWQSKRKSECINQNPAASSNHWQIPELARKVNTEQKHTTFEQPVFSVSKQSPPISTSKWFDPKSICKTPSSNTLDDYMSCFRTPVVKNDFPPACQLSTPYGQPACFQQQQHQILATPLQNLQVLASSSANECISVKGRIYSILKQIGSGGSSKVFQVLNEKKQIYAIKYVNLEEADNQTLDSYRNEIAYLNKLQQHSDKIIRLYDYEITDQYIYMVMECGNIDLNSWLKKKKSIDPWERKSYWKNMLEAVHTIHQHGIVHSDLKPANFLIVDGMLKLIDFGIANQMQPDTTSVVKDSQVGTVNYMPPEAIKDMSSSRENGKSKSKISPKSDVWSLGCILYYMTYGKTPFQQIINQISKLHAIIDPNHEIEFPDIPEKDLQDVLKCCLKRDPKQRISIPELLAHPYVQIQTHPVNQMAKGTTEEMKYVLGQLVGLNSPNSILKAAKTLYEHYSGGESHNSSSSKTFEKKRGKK
Put plainly: Mps-1 kinase assay (TR-FRET). In kind it is biochemical. To be noted: Mps1 IC50 [nM], 10 μM ATP, 1 μM peptide substrate, 60 min at 22° C. An outline of the steps:
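Inhibition of Mps-1 (N-terminal GST fusion, full length) toward a biotinylated peptide is read as Eu-to-XLent TR-FRET. Enzyme level, around 1 nM final, follows lot activity.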
In the case of `Cc1cc(-c2cnc3c(NCCC(F)(F)F)cc(N4CCCc5cccc(O)c54)nn23)ccc1C(=O)NC1CC1` [Example 467, N-cyclopropyl-4-{6-(8-hydroxy-3,4-dihydro-quinolin-1(2H)-yl)-8-[(3,3,3-trifluoropropyl)amino]imidazo[1,2-b]pyridazin-3-yl}-2-methyl-benzamide], the IC50 (usually the concentration needed to halve the response being measured) is 1.6 nM.

For `Cc1cc(-c2cnc3c(NCCC(F)(F)F)cc(Oc4cccc5ccc(=O)[nH]c45)nn23)ccc1C(=O)NC1CC1` [Example 468, N-cyclopropyl-2-methyl-4-{6-[(2-oxo-1,2-dihydro-quinolin-8-yl)oxy]-8-[(3,3,3-trifluoropropyl)amino]imidazo[1,2-b]pyridazin-3-yl} benzamide], the half-inhibitory concentration (IC50) turned out to be 7.5 nM.

Turning to `Cc1cc(-c2cnc3c(NCCC(F)(F)F)cc(Oc4cccc5c4CCN(C)C5)nn23)ccc1C(=O)NC1CC1` [Example 469, N-cyclopropyl-2-methyl-4-{6-[(2-methyl-1,2,3,4-tetrahydroisoquinolin-5-yl)oxy]-8-[(3,3,3-trifluoropropyl)amino]imidazo[1,2-b]pyridazin-3-yl}benzamide], the IC50 stood at 1.7 nM.

Take `Cc1cccc(Oc2cc(NCCC(F)(F)F)c3ncc(-c4ccc(C(=O)NC5CC5)c(C)c4)n3n2)c1` [Example 470, N-cyclopropyl-2-methyl-4-{6-(3-methylphenoxy)-8-[(3,3,3-trifluoro-propyl)amino]imidazo [1,2-b]pyridazin-3-yl} benzamide]: the half-maximal inhibitory concentration (IC50) is 0.4 nM.

For the compound `COc1ccc(Oc2cc(NCCC(F)(F)F)c3ncc(-c4ccc(C(=O)NC5CC5)c(C)c4)n3n2)cc1` [Example 471, N-cyclopropyl-4-{6-(4-methoxyphenoxy)-8-[(3,3,3-trifluoropropyl)amino]imidazo[1,2-b]pyridazin-3-yl}-2-methylbenzamide], the IC50 worked out at 0.2 nM.

Consider `Cc1cc(-c2cnc3c(NCCC(F)(F)F)cc(Oc4ccc(F)cc4)nn23)ccc1C(=O)NC1CC1` [Example 472, N-cyclopropyl-4-{6-(4-fluorophenoxy)-8-[(3,3,3-trifluoropropyl)amino]imidazo[1,2-b]pyridazin-3-yl}-2-methyl-benzamide], for which the IC50 turned out to be 0.2 nM.

As for `Cc1cc(-c2cnc3c(NCCC(F)(F)F)cc(Oc4ccccc4F)nn23)ccc1C(=O)NC1CC1` [Example 473, N-cyclopropyl-4-{6-(2-fluorophenoxy)-8-[(3,3,3-trifluoropropyl)amino]imidazo[1,2-b]pyridazin-3-yl}-2-methyl-benzamide], the IC50 was found to be 0.4 nM.

Consider `Cc1ccccc1Oc1cc(NCCC(F)(F)F)c2ncc(-c3ccc(C(=O)NC4CC4)c(C)c3)n2n1` [Example 474, N-cyclopropyl-2-methyl-4-{6-(2-methylphenoxy)-8-[(3,3,3-trifluoro-propyl)amino]imidazo [1,2-b]pyridazin-3-yl} benzamide], for which the IC50 was determined as 0.3 nM.

For the compound `COc1ccc(Oc2cc(NCCC(F)(F)F)c3ncc(-c4ccc(C(=O)NC5CC5)c(C)c4)n3n2)cc1F` [Example 475, N-cyclopropyl-4-{6-(3-fluoro-4-methoxy-phenoxy)-8-[(3,3,3-tri-fluoropropyl)amino]imidazo[1,2-b]pyridazin-3-yl}-2-methylbenzamide], the half-inhibitory concentration (IC50) was 0.2 nM.

Regarding `CC(=O)Nc1ccncc1Oc1cc(NCCC(F)(F)F)c2ncc(-c3ccc(C(=O)NC4CC4)c(C)c3)n2n1` [Example 476, 4-(6-{[4-(acetylamino)pyridin-3-yl]oxy}-8-[(3,3,3-trifluoropropyl)amino]imidazo[1,2-b]pyridazin-3-yl)-N-cyclo-propyl-2-methyl-benzamide], the IC50 turned out to be 10.3 nM.

On to `Cc1cc(-c2cnc3c(NCCC(F)(F)F)cc(Oc4cccc(F)c4N)nn23)ccc1C(=O)NC1CC1` [Example 477, 4-{6-(2-amino-3-fluoro-phenoxy)-8-[(3,3,3-tri-fluoropropyl)amino]imidazo[1,2-b]pyridazin-3-yl}-N-cyclopropyl-2-methylbenzamide], for which the concentration for half-maximal inhibition (IC50) was found to be 0.3 nM.

In the case of `Cc1cc(-c2cnc3c(NCCC(F)(F)F)cc(Nc4c(O)cccc4F)nn23)ccc1C(=O)NC1CC1` [Example 478, N-cyclopropyl-4-{6-[(2-fluoro-6-hydroxyphenyl)amino]-8-[(3,3,3-tri-fluoropropyl)amino]imidazo[1,2-b]pyridazin-3-yl}-2-methylbenzamide], the concentration for half-maximal inhibition (IC50) stood at 0.3 nM.

With `Cc1ccc(Oc2cc(NCCC(F)(F)F)c3ncc(-c4ccc(C(=O)NC5CC5)c(C)c4)n3n2)cc1` [Example 479, N-cyclopropyl-2-methyl-4-{6-(4-methylphenoxy)-8-[(3,3,3-trifluoro-propyl)amino]imidazo [1,2-b]pyridazin-3-yl} benzamide], the concentration for half-maximal inhibition (IC50) was 0.2 nM.

Consider `Cc1cc(-c2cnc3c(NCCC(F)(F)F)cc(Nc4ccncc4O)nn23)ccc1C(=O)NC1CC1` [Example 481, N-cyclopropyl-4-{6-[(3-hydroxypyridin-4-yl)amino]-8-[(3,3,3-tri-fluoropropyl)amino]imidazo[1,2-b]pyridazin-3-yl}-2-methylbenzamide], for which the concentration for half-maximal inhibition (IC50) came out at 3.1 nM.

As to `C=C(c1ccccc1)c1cc(NCCC(F)(F)F)c2ncc(-c3ccc(C(=O)NC4CC4)c(C)c3)n2n1` [Example 482, N-cyclopropyl-2-methyl-4-{6-(1-phenylethenyl)-8-[(3,3,3-trifluoropropyl)amino]imidazo[1,2-b]pyridazin-3-yl}benzamide], the IC50 is 0.6 nM.

In the case of `COc1ccc(Cc2cc(NCCC(F)(F)F)c3ncc(-c4ccc(C(=O)NC5CC5)c(C)c4)n3n2)cc1F` [Example 483, N-cyclopropyl-4-{6-(3-fluoro-4-methoxybenzyl)-8-[(3,3,3-tri-fluoropropyl)amino]imidazo [1,2-b]pyridazin-3-yl}-2-methylbenzamide], the IC50 turned out to be 0.1 nM.

Turning to `Cc1ccc(Cc2cc(NCCC(F)(F)F)c3ncc(-c4ccc(C(=O)NC5CC5)c(C)c4)n3n2)cc1F` [Example 484, N-cyclopropyl-4-{6-(3-fluoro-4-methylbenzyl)-8-[(3,3,3-tri-fluoropropyl)amino]imidazo [1,2-b]pyridazin-3-yl}-2-methylbenzamide], the IC50 was 0.3 nM.

On to `Cc1cc(-c2cnc3c(NCCC(F)(F)F)cc(Cc4cccc(Br)c4)nn23)ccc1C(=O)NC1CC1` [Example 485, 4-{6-(3-bromobenzyl)-8-[(3,3,3-trifluoropropyl)amino]imidazo [1,2-b]pyridazin-3-yl}-N-cyclo-propyl-2-methylbenzamide], for which the 50% inhibitory concentration (IC50) amounted to 0.4 nM.

Turning to `Cc1cc(-c2cnc3c(NCC(O)C(F)(F)F)cc(Oc4cccc(F)c4)nn23)ccc1C(=O)NC1CC1` (stereo not drawn) [Example 486, N-cyclopropyl-4-{6-(3-fluorophenoxy)-8-[(3,3,3-trifluoro-2-hydroxypropyl)amino]imidazo[1,2-b]pyridazin-3-yl}-2-methylbenzamide], the half-maximal inhibitory concentration (IC50) came out at 0.1 nM.

With `Cc1cc(-c2cnc3c(NCCN(C)C)cc(Oc4cccc(F)c4)nn23)ccc1C(=O)NC1CC1` [Example 487, N-cyclopropyl-4-[8-{[2-(dimethylamino)ethyl]amino}-6-(3-fluorophenoxy)imidazo [1,2-b]pyridazin-3-yl]-2-methylbenzamide], the concentration for half-maximal inhibition (IC50) was 0.1 nM.

Take `Cc1cc(-c2cnc3c(NCc4ccn(C)n4)cc(Oc4cccc(F)c4)nn23)ccc1C(=O)NC1CC1` [Example 488, N-cyclopropyl-4-[6-(3-fluoro-phenoxy)-8-{[(1-methyl-1H-pyrazol-3-yl)methyl]amino}imidazo[1,2-b]pyridazin-3-yl]-2-methylbenzamide]: the IC50 was 0.1 nM.

Regarding `Cc1cc(-c2cnc3c(NCc4cc[nH]n4)cc(Oc4cccc(F)c4)nn23)ccc1C(=O)NC1CC1` [Example 489, N-cyclopropyl-4-{6-(3-fluoro-phenoxy)-8-[(1H-pyrazol-3-ylmethyl)amino]imidazo [1,2-b]pyridazin-3-yl}-2-methylbenzamide], the IC50 came out at 0.2 nM.

Turning to `Cc1cc(-c2cnc3c(NCC4(CO)COC4)cc(Oc4cccc(F)c4)nn23)ccc1C(=O)NC1CC1` [Example 490, N-cyclopropyl-4-[6-(3-fluoro-phenoxy)-8-({[3-(hydroxymethyl)oxetan-3-yl]methyl}amino)imidazo[1,2-b]pyridazin-3-yl]-2-methylbenzamide], the IC50 was found to be 1.5 nM.

As to `Cc1cc(-c2cnc3c(NCC(O)CO)cc(Oc4cccc(F)c4)nn23)ccc1C(=O)NC1CC1` (stereo not drawn) [Example 491, N-cyclopropyl-4-{8-[(2,3-dihydroxypropyl)amino]-6-(3-fluorophenoxy)imidazo [1,2-b]pyridazin-3-yl}-2-methylbenzamide], the half-maximal inhibitory concentration (IC50) stood at 0.1 nM.
